Experimental data as given in US20090155828A1, “METHODS OF DETECTING PROSTATE CANCER” (The Burnham Institute for Medical Research, priority 2001, published 2009).
Entries after “also recorded” stand apart in the source; their conditions may differ.

What was measured:
[1] = test system: DPP-like activity in LNCaP soluble fraction; assay: Inhibition of DPP-like activity with isoleucine thiozolidide, fp-PEG-Tamra labeling, LNCaP soluble fraction; format: biochemical, human; details: for Reaction of fp-PEG-Tamra probe with DPP-like protein (words): LNCaP lysate preincubated with IT, 97 kDa band
Protocol: (§1) . Each lysate was pre-incubated with 100 TM IT for 20 min at RT. Residual DPP-like activity was evaluated by treatment with 2 TM fp-PEG-Tamma, as described above, followed by resolution with 10% SDS-PAGE and comparison to samples not treated with IT. Inhibition of DPP activity was quantified by measuring the fluorescence intensity of the conjugate between fp-PEG-TAMRA and the DPP. The activity of a non-DPP enzyme was used to standardize the specific effects if IT.
(§2) One member of this family, DPP-IV, has been investigated as a target in type II diabetes. As a result of those investigations, several peptidic antagonists of DPP IV have been synthesized (Pederson et al., Diabetes 47:1253-58; 1998; Pauly et al., Metabolism 48(3):385-389, 1999). […]. The sensitivity of enzyme activity to IT was tested in the soluble fractions of the LNCaP, DU-145, and PC-3 prostate cancer cells lines. Each lysate was pre-incubated with 100 TM IT for 20 min at RT. Residual DPP-like activity was evaluated by the addition of 2 TM fp-PEG-Tamra, followed by resolution with 10% SDS-PAGE and comparison to the non-treated samples. […]. […] Specific labeling was determined by comparison to preheated controls.
In each of the three prostate cancer cell lines, a novel protein with homology to DPP was identified using MS/MS. The similarity to DPP was based on fold and function assignment of the corresponding cDNA and its cognate protein (Zhang et al., Prot. Sci. 8:1104-1115, 1999). […].

[2] = test system: non-DPP proteins (other serine hydrolase activity); assay: Specificity of IT: fp-PEG-Tamra labeling of non-DPP serine hydrolases in prostate cancer cell lysates; format: biochemical, human; details: soluble fractions of LNCaP, DU-145, PC-3, 100 TM IT
Protocol: as §1, §2
In each of the three prostate cancer cell lines, a novel protein with homology to DPP was identified using MS/MS. […]

tumor cells in culture = details: cited from earlier work; for Apoptosis of tumor cells: tumor / cancer cells in culture
tumor growth = details: cited from earlier work
LNCaP cells = assay: Androgen effects on LNCaP cell proliferation; format: cell-based, human; details: six days
Protocol: LNCaP cell proliferation was measured in the presence of either 0.1 nM or 100 nM DHT. Cells were plated in 24 well plates in RPMI 1640 with no phenol red and supplemented with charcoal stripped FBS and allowed to adhere overnight. The following day media was replaced, with or without DHT, and cells were grown for six days with media change every second day. Cells were counted using a hemocytometer.
In order to assess the effects of androgen (DHT) treatment on cell proliferation, LNCaP cells were plated in either 150 mm dishes (Falcon) or in 12 well tissue culture plates (Falcon) in complete medium. After 24 hr, the medium was replaced with RPMI containing no phenol red and supplemented with 10% charcoal stripped fetal bovine serum and the appropriate concentration of DHT. The medium was replaced every 48 hr for six days. At the indicated time points, the cells were removed by treatment with trypsin-EDTA and counted with a hemocytometer.
(§3) It is well established that androgen (DHT) specifically, promotes proliferation of LNCaP cells in vitro. […] LNCaP cell proliferation was measured in the presence of either 0.1 nM or 100 nM DHT. […] Cells were counted using a hemocytometer. On day six, the aggregate serine hydrolase activity profiles were also measured. […] Specific labeling was assessed by comparison to a preheated control.

[3] = test system: fatty acid synthase (FAS); assay: Fatty acid synthase activity in DHT treated LNCaP cells, fp-PEG-Tamra profile; format: cell-based, human; details: six days
Protocol: (§4) Serine hydrolase activity profiles of the prostate cell lines were measured using the labeled fluorophosphonate probe fp-PEG-Tamra. Briefly, 40 μg of either the soluble or insoluble fractions were treated with 2 μM fp-PEG-Tamra for 1 hr at RT. The labeling reactions were stopped by the addition of Laemmli buffer followed by boiling for 5 min. As a control for non-specific reaction of the probe, a duplicate sample was boiled for 10 min prior to labeling with fp-PEG-Tamra. The labeled samples were resolved by 10% SDS-PAGE and visualized by scanning with a laser at 605 nm.
as §3, with “vitro. While the direct cause for this is not completely understood, it is clear that changes in gene and protein levels are associated with proliferation. As such, it was hypothesized that androgen treatment of LNCaP cells would change the aggregate activity profile.” for “vitro.”

[4] = test system: prolyl endopeptidase (PEP); assay: Prolyl endopeptidase activity in DHT treated LNCaP cells, fp-PEG-Tamra profile; format: cell-based, human; details: six days
Protocol: as §4
as §3, with “vitro. While the direct cause for this is not completely understood, it is clear that changes in gene and protein levels are associated with proliferation. As such, it was hypothesized that androgen treatment of LNCaP cells would change the aggregate activity profile.” for “vitro.”

PSA = PSA activity in DHT treated LNCaP cells, fp-PEG-Tamra profile; format: cell-based, human; details: six days
Protocol: as §4
as §3, with “vitro. While the direct cause for this is not completely understood, it is clear that changes in gene and protein levels are associated with proliferation. As such, it was hypothesized that androgen treatment of LNCaP cells would change the aggregate activity profile.” for “vitro.”

[5] = test system: N-acyl peptide hydrolase (NAPH); assay: N-acyl peptide hydrolase activity in DHT treated LNCaP cells, fp-PEG-Tamra profile; format: cell-based, human; details: 100 nM DHT, six days
Protocol: as §4
as §3, with “vitro. While the direct cause for this is not completely understood, it is clear that changes in gene and protein levels are associated with proliferation. As such, it was hypothesized that androgen treatment of LNCaP cells would change the aggregate activity profile.” for “vitro.”

PSA mRNA = PSA mRNA level in DHT treated LNCaP cells by real time PCR; format: cell-based, human
Protocol: (§5) The serine hydrolase activity levels in the four prostate cell lines, or the change in serine hydrolase activity with DHT treatment, as assessed by fp-PEG-Tamra, was compared to the mRNA level of the cognate enzymes. Total RNA was isolated with Trizol (Life Technologies) from LNCaP, LNCaP treated with DHT, DU-145, PC-3 or PrEC cell lines. Reverse transcription was performed with Superscript II. Real time PCR was performed using the Roche SYBER Green DNA kit and a Roche LightCycler according to manufacturer instructions. Primers (20mers) were used at a final concentration of […], and 45 cycles were used.

PEP mRNA = PEP mRNA level in DHT treated LNCaP cells by real time PCR; format: cell-based, human; details: 100 nM DHT
Protocol: as §5

NAPH mRNA = NAPH mRNA level in DHT treated LNCaP cells by real time PCR; format: cell-based, human; details: 100 nM DHT
Protocol: as §5

[6] = listed as isoleucine thiazolidide

For `CC[C@H](C)[C@H](N)C(=O)N1CCSC1` [IT, isoleucine thiazolidide], the “Reaction of fp-PEG-Tamra probe with DPP-like protein (words)” value [1] was “inhibited”, the “Reaction of fp-PEG-Tamra probe with DPP-like protein (words)” value [1, 6] was “dramatically reduced” and the DPP-like activity inhibited ([1]; LNCaP soluble fraction, pre-incubated with 100 TM IT 20 min RT, 2 TM fp-PEG-Tamra) was 63%. For the same compound, the “Inhibition of non-DPP proteins / other serine hydrolase activity” value [2] was “No inhibition; also recorded: no other serine hydrolase activity was reduced” and the “Inhibition of non-DPP proteins / other serine hydrolase activity” value [2, 6] was “No other enzyme activities were inhibited”.

In the case of `C=C1C(=O)OC(CCCCCCCC)C1C(=O)O` (centres unmarked) [Compound C75], the “Cytotoxicity to cancer cells” value (tumor cells in culture) is given as “cytotoxic” and the “Apoptosis of tumor cells” value (tumor cells in culture) is given as “in some cases induce apoptosis”.

In the case of `C/C=C/C/C=C/CCC(=O)[C@H]1O[C@H]1C(N)=O` [cerulenin], the “Cytotoxicity to cancer cells” value (tumor cells in culture) is given as “cytotoxic”, the “Apoptosis of tumor cells” value (tumor cells in culture) is given as “induces apoptosis; also recorded: in some cases induce apoptosis” and the “Tumor growth in nude mice” value (tumor growth) is given as “inhibit tumor growth”.

In the case of `C[C@]12CCC(=O)C[C@@H]1CC[C@@H]1[C@@H]2CC[C@]2(C)[C@@H](O)CC[C@@H]12` [DHT], the LNCaP cell proliferation (LNCaP cells; 0.1 nM DHT) is reported as “promoted cell proliferation”, the LNCaP cell proliferation (LNCaP cells; 100 nM DHT) is reported as “cell proliferation was inhibited” and the “Change of FAS activity” value ([3]; 0.1 nM DHT) is reported as “increased three-fold to five-fold”. The “Change of FAS activity” value ([3]; 100 nM DHT) was “increased”, the “Change of PEP activity” value ([4]; 0.1 nM DHT) was “decreased” and the “Change of PEP activity” value ([4]; 100 nM DHT) was “dramatic drop”. The “Change of PSA activity” value (PSA; 0.1 nM DHT) was “no noticeable change”, the “Change of PSA activity” value (PSA; 100 nM DHT) was “increased” and the “Change of NAPH activity” value [5] was “dramatic drop”. For the same compound, the “Change of PSA mRNA level” value (PSA mRNA; 0.1 nM DHT, six days) was “increased over eleven-fold”, the “Change of PSA mRNA level” value (PSA mRNA; 100 nM DHT) was “large increase” and the “Change of PEP mRNA level” value (PEP mRNA) was “increased”. For the same compound, the “Change of NAPH mRNA level” value (NAPH mRNA) was “slightly greater than two-fold”.
